Measured values published in patent publication US12428398B2, “2-(2,4,5-substituted phenylamino) pyrimidine derivative and crystalline form B thereof” (Henan Genuine Biotech Co., Ltd., priority 2019, dated 2025).

What was measured:
wild EGFR = wild EGFR (Homo sapiens, UniProt P00533); settings: J. Med. Chem. 2014; cited from earlier work
[1] = Pharmacokinetics of Dositinib and AZD9291 in rats; settings: for T1/2: parent drug; for AUC0-last / Cmax: parent drug in plasma; for Cmax: intragastric 12 mg/kg per FIGS. 2-5
Text: Preparation of Test Solution
2) Preparation of Orally Administered Preparations • a) Weigh an appropriate amount of compound powders into a container; • b) Add an appropriate volume of 0.5% HPMC (hydroxypropyl methylcellulose, 4000 CP) aqueous solution to the container, and continuously stir or whirl until a uniform solution was obtained; • c) Add the remaining volume of 0.5% HPMC (hydroxypropyl methylcellulose, 4000 CP) aqueous solution to the container to a final volume, and continuously stir or whirl until the solution was uniform.
The preparation for intragastric administration was prepared the day before administration and analyzed. When the preparation was not in use, it was stored in a refrigerator at 2° C. to 8° C. and used within 8 days.
Animal: Rats (SD) from Beijing Vital River Laboratory Animal Technology Co., Ltd. 36 rats (18 males and 18 females), 6-10 weeks old, 200-300 g (males); 170-280 g (female). […] The animals in the sixth group were administered with AZD9291 (mesylate) solution by gavage, with a dose volume of 10 mL/kg. The blood samples were taken at the following time points after administration to measure the blood drug concentrations: 0.083, 0.25, 0.5, 1, 2, 4, 6, 8, 12 and 24 hours.
Administration: Whole blood samples were collected through jugular vein puncture (or other appropriate blood collection sites) at the specified time (about 0.15 mL in the fifth group and 0.23 mL in other groups), with wet ice operation throughout the whole process, and the actual blood collection time was recorded in the experimental records. The acceptable error of collection time point was ±1 minute within 1 hour of administration, and ±5% of theoretical time for other time points. The blood samples were immediately transferred to labeled commercial tubes containing K2-EDTA and then centrifuged (3,000 g, 4° C., 15 min) for plasma collection.
Retention time, chromatogram collection and chromatogram integration of compounds and internal standards were processed by Software Analyst (Applied Biosystems), and data statistics were processed by software Watson LIMS (Thermo Fisher Scientific) or Analyst (Applied Biosystems). The unit of the analyte concentration in the sample was nM, three significant figures were reserved, and all values expressed in percentage (such as % deviation and % coefficient of variation, etc.) were reserved to one decimal place.
Data analysis and reporting: WinNonlin™ Version 6.3 (Pharsight, Mountain View, CA) or above pharmacokinetic software for non-atrioventricular models was used to process the blood drug concentration, and the linear logarithm trapezoid method was used to calculate the pharmacokinetic parameters.

[2] = system: Human non-small cell lung cancer HCC827 cell subcutaneous xenograft; settings: HCC-827 nude mouse model, PO QD
Experimental: Example 5 In Vivo Pharmacodynamics of Crystalline Form B of Dositinib and AZD9291 on Human Non-Small Cell Lung Cancer HCC827 Cell Subcutaneous Xenograft BALB/C Nude Mouse Model
Human non-small cell lung cancer HCC827 (ATCC-CRL-2868) was monolayer cultured in vitro. The culture conditions were: RPMI-1640 medium with 10% fetal bovine serum, 100 U/mL penicillin and 100 g/mL streptomycin, in a 5% CO2 incubator at 37° C. Trypsin EDTA was used for routine digestion twice a week. When the cell saturation was 80%-90% and the number reached the requirements, the cells were collected, counted and transplanted.
Animals: BALB/c nude mouse, female, 6-8 weeks old, weight 18-22 g. […]
Experimental index: to investigate whether the tumor growth is inhibited, delayed or cured. The tumor diameter was measured with a vernier caliper twice a week. […]
The antitumor effect of the compound was evaluated by tumor growth inhibition value (TGI) (%) or relative tumor proliferation rate T/C (%). […]
Relative tumor proliferation rate T/C (%): the calculation is as follows: T/C %=TRTV/CRTV×100% (TRTV: treatment group RTV; CRTV: negative control group RTV). The relative tumor volume (RTV) is calculated according to the results of tumor measurement. […]
At the end of the experiment, the tumor weight is measured and the percentage of Tweight/Cweight is calculated. […]

wild EGFR, sequence (P00533 25-1210): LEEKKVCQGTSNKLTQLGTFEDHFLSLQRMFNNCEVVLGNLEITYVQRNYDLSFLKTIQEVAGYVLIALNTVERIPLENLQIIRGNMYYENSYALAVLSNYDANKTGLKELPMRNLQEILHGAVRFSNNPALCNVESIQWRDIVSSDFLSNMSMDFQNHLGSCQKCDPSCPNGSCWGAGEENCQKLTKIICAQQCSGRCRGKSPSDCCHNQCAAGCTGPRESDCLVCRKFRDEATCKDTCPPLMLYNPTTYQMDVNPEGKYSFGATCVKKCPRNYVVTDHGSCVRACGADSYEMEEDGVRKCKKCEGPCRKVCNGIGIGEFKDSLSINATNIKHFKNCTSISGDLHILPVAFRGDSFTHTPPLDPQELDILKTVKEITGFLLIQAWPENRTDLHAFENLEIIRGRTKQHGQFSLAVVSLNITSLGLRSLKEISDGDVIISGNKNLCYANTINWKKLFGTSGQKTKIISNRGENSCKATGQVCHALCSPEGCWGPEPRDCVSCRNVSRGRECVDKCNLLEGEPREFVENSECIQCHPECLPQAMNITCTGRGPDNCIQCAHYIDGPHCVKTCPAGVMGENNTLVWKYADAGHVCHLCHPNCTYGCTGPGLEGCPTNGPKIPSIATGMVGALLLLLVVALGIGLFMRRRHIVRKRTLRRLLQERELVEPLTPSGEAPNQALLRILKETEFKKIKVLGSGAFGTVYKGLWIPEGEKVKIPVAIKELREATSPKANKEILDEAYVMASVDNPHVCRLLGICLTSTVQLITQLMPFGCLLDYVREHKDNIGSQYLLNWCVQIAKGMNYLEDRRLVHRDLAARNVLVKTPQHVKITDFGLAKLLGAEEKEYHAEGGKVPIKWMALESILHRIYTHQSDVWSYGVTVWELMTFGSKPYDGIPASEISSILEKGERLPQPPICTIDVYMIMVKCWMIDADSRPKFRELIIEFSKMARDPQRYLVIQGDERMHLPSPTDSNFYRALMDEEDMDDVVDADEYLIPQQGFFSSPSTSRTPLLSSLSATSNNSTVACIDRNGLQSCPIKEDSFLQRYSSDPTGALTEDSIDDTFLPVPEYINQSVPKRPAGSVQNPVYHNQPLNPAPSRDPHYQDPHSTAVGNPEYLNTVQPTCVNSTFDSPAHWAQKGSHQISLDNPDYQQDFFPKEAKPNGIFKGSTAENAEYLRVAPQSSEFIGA

| Structure (SMILES) | inhibitory activity on wild EGFR, times stronger than that of Osimertinib (wild EGFR) [times] | T1/2 ([1]; female rats) [h] | AUC0-last ([1]; female rats) [ng·h/mL] | Cmax ([1]; female rats) [ng/mL] | T1/2 ([1]; male rats) [h] | AUC0-last ([1]; male rats) [ng·h/mL] | Cmax ([1]; male rats) [ng/mL] | anticancer activity relative to AZD9291 (Osimertinib, mixture of crystalline forms A and B) [2] | anticancer activity of 0.5 mg/kg compared with 1 mg/kg of AZD9291 ([2]; 0.5 mg/kg) |
| --- | --- | --- | --- | --- | --- | --- | --- | --- | --- |
| C=CC(=O)Nc1cc(Nc2nccc(-c3c[nH]c4ccccc34)n2)c(OC)cc1N(C)CCN(C)C [AZ5104] | 14.5 |  |  |  |  |  |  |  |  |
| C=CC(=O)Nc1cc(Nc2nccc(-c3cn(C)c4ccccc34)n2)c(OC)cc1N(C)CCN(C)C [AZD9291 (crystalline form A + B), Osimertinib, reference compound] |  | 5.59 | 2592 | 207 | 3.40 | 907 | 106 |  |  |
| CS(=O)(=O)O.[2H]C([2H])=CC(=O)Nc1cc(Nc2nccc(-c3cn(C([2H])([2H])[2H])c4ccccc34)n2)c(OC)cc1N(C)CCN(C)C [Dositinib (crystalline form A + B), N-(2-(((2-(Dimethylamino)ethyl)) (methyl)amino)-4-methoxy-5-((4-(d3-1-methyl-1H-indol-3-yl)pyrimidin-2-yl)amino)phenyl) d2-acrylamide-mesylate] |  | 6.77 | 2650 | 205 | 3.70 | 915 | 110 |  |  |
| CS(=O)(=O)O.[2H]C([2H])=CC(=O)Nc1cc(Nc2nccc(-c3cn(C([2H])([2H])[2H])c4ccccc34)n2)c(OC)cc1N(C)CCN(C)C [Dositinib (crystalline form B), N-(2-(((2-(Dimethylamino)ethyl)) (methyl)amino)-4-methoxy-5-((4-(d3-1-methyl-1H-indol-3-yl)pyrimidin-2-yl)amino)phenyl) d2-acrylamide-mesylate] |  | 6.85 | 3105 | 208 | 3.87 | 1100 | 115 | twice | equivalent |
